The target in one test is PIM1 (Homo sapiens, UniProt P11309). Nature of the test: KinaseGlo Pim1 ATP depletion assay. It is filed as biochemical. The procedure, abridged: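 IC50 is derived from residual ATP measured by KinaseGlo Plus luminescence once about half the ATP was consumed. Final conditions were 20 μM ATP, 40 μM BAD peptide and 2.5 nM kinase in HEPES pH 7.5 buffer with MgCl2, DTT and BSA, plus 2.5% DMSO. Compound and enzyme were premixed 15 min before ATP addition.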
On the technique in general: Kinase-Glo reads ATP consumption through a luciferase reaction.

The target of a further test is PIM2 (Homo sapiens, UniProt Q9P1W9). Briefly: KinaseGlo Pim2 ATP depletion assay. In kind it is biochemical. In outline: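 Compound sat 15 min with enzyme and BAD peptide before ATP was added; final levels 5 nM PIM2, 10 μM peptide, 4 μM ATP, 2.5% DMSO, pH 7.5 HEPES buffer with MgCl2, DTT, BSA. Stopped near 50% ATP consumption; remaining ATP measured by luciferase luminescence.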
PIM2, sequence (Q9P1W9 whole entry): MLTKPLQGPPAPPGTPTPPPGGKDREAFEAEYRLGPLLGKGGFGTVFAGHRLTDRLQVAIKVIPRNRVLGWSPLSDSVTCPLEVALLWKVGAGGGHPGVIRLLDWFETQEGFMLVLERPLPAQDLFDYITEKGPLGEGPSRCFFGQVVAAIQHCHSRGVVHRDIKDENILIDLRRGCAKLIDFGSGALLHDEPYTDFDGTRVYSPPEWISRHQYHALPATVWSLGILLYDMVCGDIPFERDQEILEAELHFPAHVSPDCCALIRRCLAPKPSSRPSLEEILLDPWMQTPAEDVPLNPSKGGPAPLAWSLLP

A further test deals with PIM3 (Homo sapiens, UniProt Q86V86). Nature of the test: KinaseGlo Pim3 ATP depletion assay. It is filed as biochemical. In outline: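 Residual ATP was detected by luciferase luminescence once about half had been consumed. The reaction contained 5 nM enzyme, 100 μM BAD peptide (RSRHSSYPAGT) and 40 μM ATP in 50 mM HEPES pH 7.5, 5 mM MgCl2, 1 mM DTT and 0.05% BSA with 2.5% DMSO. Compound and enzyme/peptide were premixed 15 min before ATP.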

A further test deals with GSK3β (Homo sapiens, UniProt P49841). Nature of the test: GSK3β ATP depletion assay. It is filed as biochemical. To be noted: read-out: GSK3b IC50. In outline: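 Kinase activity is read as ATP consumption: luciferase luminescence reports the ATP remaining once roughly half of the 2 μM ATP is used. Reaction mix: 5 nM GSK3β, 10 μM b-CREB peptide, 50 mM Tris pH 7.5, 15 mM MgCl2, 1 mM DTT, 0.1% BSA, 2.5% DMSO. Enzyme and peptide are preincubated 15 min before ATP is added.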
GSK3β, sequence (P49841 whole entry, species assumed): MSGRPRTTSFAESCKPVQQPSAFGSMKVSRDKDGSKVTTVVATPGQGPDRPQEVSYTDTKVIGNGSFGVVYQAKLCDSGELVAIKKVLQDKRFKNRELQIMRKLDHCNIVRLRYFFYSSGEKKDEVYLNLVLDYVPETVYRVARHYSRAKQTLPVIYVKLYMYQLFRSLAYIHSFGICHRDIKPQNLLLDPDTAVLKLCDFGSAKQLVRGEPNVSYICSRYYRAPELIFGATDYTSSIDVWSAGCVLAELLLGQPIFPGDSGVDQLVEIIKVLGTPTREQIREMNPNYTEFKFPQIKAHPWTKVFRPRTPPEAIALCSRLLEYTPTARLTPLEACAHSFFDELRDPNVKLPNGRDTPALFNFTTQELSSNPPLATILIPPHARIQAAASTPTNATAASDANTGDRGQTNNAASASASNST

Test [1] relates to KMS11 (human myeloma cell line). Briefly: Cell proliferation assay (CellTiter-Glo), KMS11. The settings on record: Homo sapiens, KMS-11; KMS11-Luc cells. In kind it is cell-based. The procedure, abridged: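 EC50 derived from CellTiter-Glo luminescence after 3-day exposure at 37° C. Compound was diluted to 2× in medium and added to an equal volume of cells. KMS11 myeloma cells were plated on assay day at 2000/well in IMDM with 10% FBS and sodium pyruvate.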

Results on eight compounds are retold here after US20130109682A1, “CYCLIC ETHER COMPOUNDS USEFUL AS KINASE INHIBITORS” (NOVARTIS AG, priority 2010, published 2013).

A value given as a limit tells only on which side of the number the result lay.

PIM1, sequence (P11309 whole entry): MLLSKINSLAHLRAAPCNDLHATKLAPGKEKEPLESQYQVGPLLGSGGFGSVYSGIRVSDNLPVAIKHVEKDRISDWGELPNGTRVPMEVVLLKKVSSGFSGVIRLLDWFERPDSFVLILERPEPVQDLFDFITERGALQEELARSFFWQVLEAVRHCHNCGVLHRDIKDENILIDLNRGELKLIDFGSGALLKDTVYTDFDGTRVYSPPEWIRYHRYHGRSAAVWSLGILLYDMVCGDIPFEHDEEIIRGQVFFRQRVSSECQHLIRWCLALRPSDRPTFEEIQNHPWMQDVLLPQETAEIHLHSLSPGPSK

On to `O=C(Nc1cnccc1C1=C[C@@H](O)[C@H](O)[C@@H](CO)O1)c1ccc(F)c(-c2c(F)cccc2F)n1` [Example 79, 6-(2,6-difluorophenyl)-N-(4-((2R,3S,4R)-3,4-dihydroxy-2-(hydroxymethyl)-3,4-dihydro-2H-pyran-6-yl)pyridin-3-yl)-5-fluoropicolinamide], for which the IC50 (in general, the concentration at which inhibition is half-maximal) against PIM1 amounted to 2 nM; on PIM2, 17 nM; at PIM3, 3 nM; on GSK3β, 1450 nM. In test [1], the EC50 – broadly, the midpoint of the concentration-response curve – was greater than 10000 nM.
The corresponding values for `O=C(Nc1cnccc1[C@H]1C[C@@H](O)[C@H](O)[C@@H](CO)O1)c1csc(-c2c(F)cccc2F)n1` [Example 80, 2-(2,6-difluorophenyl)-N-(4-((2R,4R,5S,6R)-4,5-dihydroxy-6-(hydroxymethyl)tetrahydro-2H-pyran-2-yl)pyridin-3-yl)thiazole-4-carboxamide] are 44 nM, 4920 nM, 171 nM, 1230 nM and greater than 10000 nM.
As for `O=C(Nc1cnccc1[C@H]1C[C@@H](O)[C@H](O)[C@@H](CO)O1)c1ccc(F)c(-c2c(F)cccc2F)n1` [Example 83, 6-(2,6-difluorophenyl)-N-(4-((2R,4R,5S,6R)-4,5-dihydroxy-6-(hydroxymethyl)tetrahydro-2H-pyran-2-yl)pyridin-3-yl)-5-fluoropicolinamide], the IC50 at PIM1 worked out at 19 nM; on PIM2, 291 nM; against PIM3 it was 32 nM; on GSK3β, 2800 nM. Also, the EC50 in test [1] was greater than 10000 nM.
The corresponding values for `CC1(C)O[C@@H](c2ccncc2NC(=O)c2csc(-c3c(F)cccc3F)n2)C[C@H](O)[C@@H]1O` [Example 88, 2-(2,6-difluorophenyl)-N-(4-((2R,4S,5S)-4,5-dihydroxy-6,6-dimethyltetrahydro-2H-pyran-2-yl)pyridin-3-yl)thiazole-4-carboxamide] are 1 nM, 80 nM, 5 nM, 10 nM and 9700 nM.
As to `CC1(C)O[C@@H](c2ccncc2NC(=O)c2ccc(F)c(-c3c(F)cccc3F)n2)C[C@H](O)[C@@H]1O` [Example 89, 6-(2,6-difluorophenyl)-N-(4-((2R,4S,5S)-4,5-dihydroxy-6,6-dimethyltetrahydro-2H-pyran-2-yl)pyridin-3-yl)-5-fluoropicolinamide], the IC50 on PIM1 is 1 nM; on PIM2 it was 6 nM; against PIM3, 2 nM; at GSK3β, 88 nM. Besides, the EC50 in test [1] was found to be 2400 nM.
For `CC1(C)O[C@H](c2ccncc2NC(=O)c2csc(-c3c(F)cccc3F)n2)C[C@@H](O)[C@H]1O` [Example 90, 2-(2,6-difluorophenyl)-N-(4-((2S,4R,5R)-4,5-dihydroxy-6,6-dimethyltetrahydro-2H-pyran-2-yl)pyridin-3-yl)thiazole-4-carboxamide] the same measures were 5 nM, 500 nM, 31 nM, 46 nM and 4000 nM.
The corresponding values for `CC1(C)O[C@H](c2ccncc2NC(=O)c2ccc(F)c(-c3c(F)cccc3F)n2)C[C@@H](O)[C@H]1O` [Example 91, 6-(2,6-difluorophenyl)-N-(4-((2S,4R,5R)-4,5-dihydroxy-6,6-dimethyltetrahydro-2H-pyran-2-yl)pyridin-3-yl)-5-fluoropicolinamide] are 3 nM, 47 nM, 13 nM, 171 nM and 7100 nM.
For `C[C@H]1O[C@@H](c2ccncc2NC(=O)c2cccc(-c3ccccc3F)n2)C[C@@H](O)[C@]1(C)O` [Example 92, N-(4-((2R,4R,5S,6R)-4,5-dihydroxy-5,6-dimethyltetrahydro-2H-pyran-2-yl)pyridin-3-yl)-6-(2-fluorophenyl)picolinamide] the same measures were 1 nM, 16 nM, 2 nM, 125 nM and greater than 10000 nM.
